In US5837728A, “9-cis retinoic acid esters and amides and uses thereof” (priority 1995, dated 1998):

Experiments:
retinoid receptors = conditions: all six subfamilies of retinoid receptors; cited from earlier work
sebaceous gland = test: Oral hamster sebaceous gland reduction assay; type: in vivo, male Syrian golden hamsters; design: key to the marks not given beside the values; conditions: 32 mg/kg
Description: An oral assay for hamster sebaceous gland reduction is conducted.
Hamsters are dosed orally with the test compound and vehicle alone. The reduction in sebaceous gland size is estimated microscopically in relation to the control. The assay is unique and proprietary to Ortho Pharmaceutical Corp. and is based upon the work of Plewig et al. (1977) and Gomex et al. (1980). Plewig, et al., Hamster Ear Model for Sebaceous Glands, J. Invest. Derm. 68: 171-176 (1977). Gomez, et al., Effect of 13-cis-Retinoic Acid on the Hamster Flank Organ, J. Invest. Derm. 74: 392-397 (1980).
For oral (p.o.) studies, male Syrian golden hamsters are […] at 5 ml/kg, once daily, five consecutive days/week for two or three weeks. Modified but similar dosing schedules could be used. Control hamsters are dosed with vehicle alone at 5 ml/kg. Following final treatment (up to 72 hours), the hamsters are sacrificed in a CO2 atmosphere. Samples of each test site are placed into 10% buffered formalin and histologically prepared. Serial sections of each sample are stained (H&E) and examined microscopically.
The reduction in sebaceous gland size is estimated microscopically in relation to the control treated sites. To quantify sebaceous gland size, cross-sectional areas are measured with an image analyzer system.

[1] = test system: skin (inner forearm, cheek); test: Topical assay for comparative dermal irritation in human subjects; type: in vivo, human (patients)
Description: 2-(9-cis-retinoyloxy)-4-methoxyacetophenone is evaluated in a study of its potential to produce dermal irritation. Comparisons are made of tretinoin, isotretinoin, 2-(9-cis-retinoyloxy)-4-methoxyacetophenone, and the vehicle solution.
In the first test, four solutions are used. The control consists of vehicle solution, namely a solution of 60% by volume ethanol and 40% by volume polyethylene glycol. The other three solutions are 0.025% solutions of tretinoin, isotretinoin, or 2-(9-cis-retinoyloxy)-4-methoxyacetophenone in 60% by volume ethanol and 40% by volume polyethylene glycol. Four patients paint two saturated cotton swabs of each of the four solutions on four different areas of the inner forearm, twice daily for ten days.
In the second test, four other solutions are used. The control consists of vehicle solution, namely a solution of 90% by volume ethanol and 10% by volume polyethylene glycol. The other three solutions are 0.075% solutions of tretinoin, isotretinoin, or 2-(9-cis-retinoyloxy)-4-methoxyacetophenonein 90% by volume ethanol and 10% by volume polyethylene glycol. Four patients paint two saturated cotton swabs of each of the four solutions on four different areas of the inner forearm, twice daily for ten days. Only one subject experiences an irritant reaction. […] By day nine, both areas are still reacting, the tretinoin area more intensely than the isotretinoin area. There is no reaction in either the 2-(9-cis-retinoyloxy)-4-methoxyacetophenone or the control areas.
In the third test, three solutions are used. The three solutions are 0.075% solutions of tretinoin, isotretinoin, or 2-(9-cis-retinoyloxy)-4-methoxyacetophenone in 90% by volume ethanol and 10% by volume polyethylene glycol. Four patients paint two saturated cotton swabs of the 2-(9-cis-retinoyloxy)-4-methoxyacetophenone solution twice daily on one cheek of their faces. To the other cheek they apply two saturated cotton swabs of either tretinoin or isotretinoin.
The tests are carried out in double-blind fashion, that is, neither the subjects nor the investigator know the contents of the solutions during the study.
Clinical assessments are made daily of the subjects cheeks. All subjects develop irritant reactions by the third or fourth day of the study.

[2] = test system: donor sites (partial-thickness wounds); conditions: average, silver sulfadiazine cream containing epidermal growth factor; cited from earlier work
[3] = test system: ulceration of both lower legs; conditions: one patient, livedoid vasculitis; cited from earlier work
[4] = test system: Human neonatal foreskin fibroblasts; test: Growth of human neonatal foreskin fibroblasts (cell number); type: cell-based; conditions: for Number of fibroblasts: two days
Description: (§1) Human neonatal foreskin keratinocytes and human neonatal foreskin fibroblasts were isolated and grown in monlayer culture. Culture medium for keratinocytes was Keratincyte Growth Medium (KGM) from Clonetics, Inc., San Diego. Calif. The culture medium for fibroblasts was Dulbecco's Modified Eagle's Medium (DMEM) supplemented with non-essential amino acids and 10% fetal bovine serum. The culture medium was obtained from GIBCO, Grand Island, N.Y. and the FBS was from Hyclone Labs, Inc., Logan, Utah.
Cells at passage 2-4 were plated in wells of a 24 well dish at approximately 5×10^4 cells per well in their respective culture medium. Incubation was at 37° C. with 5% CO2. After the cells attached and spread overnight, they were washed two times in serum-free keratincyte basal medium (KBM) and incubated in 1 ml of KBM or in 1 ml of KGM. Compound IV was added in varying concentrations to the wells. All-trans-retinoic acid (or no treatment) was added to control wells. The cells were incubated for an additional two days for fibroblasts and three days for keratinocytes, and were then harvested and counted. The effect of IV and of the controls are shown for both cell types in Tables 9 and 10: […]

[5] = test system: Human neonatal foreskin keratinocytes; test: Growth of human neonatal foreskin keratinocytes (cell number); type: cell-based; conditions: for Number of keratinocytes, KGM / Number of keratinocytes, KMB: three days
Description: as §1
Cells at passage 2-4 were plated in wells of a 24 well dish at approximately 5×10^4 cells per well in their respective culture medium. Incubation was at 37° C. with 5% CO2. After the cells attached and spread overnight, they were washed two times in serum-free keratincyte basal medium (KBM) and incubated in 1 ml of KBM or in 1 ml of KGM. Compound IV was added in varying concentrations to the wells. […] The cells were incubated for an additional two days for fibroblasts and three days for keratinocytes, and were then harvested and counted.

[6] = test system: ornithine decarboxylase (ODC); test: ODC/Retinoid Bioassay: inhibition of TPA induced ornithine decarboxylase activity; type: in vivo, CD-1 mice; conditions: topical, 1.7 nM (as printed in Table 2), TPA induced
Description: The ODC/Retinoid Bioassay is based on the method of Verma, A. K. and Boutwell, R. K., Cancer Res. (1977) 37:2196-2201. The ODC assay measures a compounds effect on the prevention of the induction of ODC, namely the effect of the retinoid compound on the inhibition of the tumor promoter 12-O-tetradecanoylphorbol-13-acetate (TPA) induced ODC activity. The assay is carried out using CD-1 mice (aged 7 to 9 weeks). The dorsal hair of the mice is shaved 3-4 days before testing. Four mice are used for each point. The test retinoids, at one of two dose levels (1.7 and 17 nmoles) dissolved in 0.2 ml of acetone is applied topically to the back of each shaved mouse. A single dose of TPA ([…]) is applied to the back of each treated mouse 30 minutes later. Control groups are treated with either acetone alone, TPA, or tretinoin. The mice are sacrificed by cervical dislocation 5 hours after TPA treatment.
The dorsal skin encompassing the shaved and TPA exposed area is excised and placed in a 100 ml beaker containing distilled water maintained at 51° C.-57° C. The skin is soaked for 50-70 seconds at this temperature with intermittent stirring. The skin is placed epidermis side up in a chilled (0°-5° C.) stainless steel plate and the epidermal layer is scraped off with a razor blade. The epidermal layers from the 4 mice are pooled and placed in a homogenization tube with 2 ml of ODA buffer ([…] with […] pyridoxal phosphate, […] ethylenediaminetetraacetic acid (EDTA), 1 mM dithiothreitol, pH 7.5). The pooled epidermal layers are homogenized for 15 seconds at 0° C. using a Polytron homogenizer at a setting of 7.5. The homogenate is centrifuged at 30,000×g and the supernatant fraction is pipetted into a storage tube and frozen for about 72 hours.
The homogenate is assayed for ODC activity as described by Verma and Boutwell to measure the release of ^14 CO2 from labeled DL(1-14C) ornithine. Incubations are carried out in disposable centrifuge tubes with center well holders containing filter paper impregnated with sodium hydroxide to absorb ^14 CO2. The incubation mixture consisted of 90 μl of L-ornithine, 350 μl of ODC buffer, 100 μl of 14C-ornithine (1.32 nm, Sp. Act:4.4 pCi/pM) and 10 μl of test sample. After incubation at 37° C. for 45 minutes, 0.5 ml of 2M chilled citric acid (4° C.) is added and incubation is continue for an additional 30 minutes to insure complete absorption of ^14 CO2. The filter paper is removed from the center well holders and set in 1 ml of water in capped scintillation vials for at least 1 hour before adding RBI 3820 scintillation cocktail. Radioactivity is measured in a Tri Carb Scintillation Counter. Results are expressed as pmol of ^14 CO2 released in 30 minutes per milligram of protein based on the specific activity of DL-14C-ornithine. The results are expressed in Table 2 below as the % reduction in ODC activity as compared to the control, for the compounds of each of the preceding Examples: […]

## CC1=C(/C=C/C(C)=C\C=C\C(C)=C\C(=O)O)C(C)(C)CCC1 [9-cis-retinoic acid]
Retinoid receptors
  Equilibrium constants in competitive binding: lowest equilibrium constants of all retinoids for all six subfamilies of retinoid receptors

## CC1=C(/C=C/C(C)=C/C=C/C(C)=C\C(=O)O)C(C)(C)CCC1 [13-cis-retinoic acid]
Sebaceous gland
  Sebaceous gland reduction: ++
[1]; first test, 0.025% solution, twice daily for ten days
  Irritant reactions, inner forearm: No irritant reactions occur
[1]; second test, 0.075% solution, twice daily for ten days, one subject of four reacted
  Irritant reaction, inner forearm: On day seven, the isotretinoin area begins reacting with redness and peeling
[1]; third test, 0.075% solution, twice daily, six days
  Irritation of the cheeks: reactions which are so intense with redness and peeling that all subjects discontinue application on or before the sixth day

## epidermal growth factor
[2]
  Acceleration of donor site healing time: 1.5 days

## O=C(c1ccc(F)cc1)C1CCN(CCn2c(=O)[nH]c3ccccc3c2=O)CC1 [Ketanserin]
[3]
  Effect on recalcitrant ulceration: healed the lesions in a patient with recalcitrant ulceration of both lower legs

## CC1=C(/C=C/C(C)=C\C=C\C(C)=C\C(=O)OCC(=O)C(C)(C)C)C(C)(C)CCC1 [Compound IV]
[4]; 0.1 μg/ml
  Number of fibroblasts: 6.4 ± 0.6 × 10^4 cells
[4]; 0.25 μg/ml
  Number of fibroblasts: 5.8 ± 0.1 × 10^4 cells
[4]; 0.5 μg/ml
  Number of fibroblasts: 5.5 ± 0.8 × 10^4 cells
[4]; 1.0 μg/ml
  Number of fibroblasts: 7.9 ± 0.1 × 10^4 cells
[4]; 5.0 μg/ml
  Number of fibroblasts: 8.5 ± 0.6 × 10^4 cells
[4]; 10.0 μg/ml
  Number of fibroblasts: 7.5 ± 0.9 × 10^4 cells
[4]; compared with retinoic acid
  Effect on fibroblasts (summary of Tables 9 and 10): less active result with fibroblasts
[5]; 0.10 μg/ml
  Number of keratinocytes, KGM: 27.4 ± 0.1 × 10^4 cells
  Number of keratinocytes, KMB: 13.1 ± 0.5 × 10^4 cells
[5]; 0.25 μg/ml
  Number of keratinocytes, KGM: 25.9 ± 0.4 × 10^4 cells
[5]; 0.5 μg/ml
  Number of keratinocytes, KGM: 22.5 ± 0.1 × 10^4 cells
  Number of keratinocytes, KMB: 13.8 ± 2.4 × 10^4 cells
[5]; 1.0 μg/ml
  Number of keratinocytes, KGM: 21.2 ± 0.8 × 10^4 cells
  Number of keratinocytes, KMB: 14.0 ± 0.9 × 10^4 cells
[5]; 5.0 μg/ml
  Number of keratinocytes, KGM: 6.4 ± 0.1 × 10^4 cells
  Number of keratinocytes, KMB: 11.2 ± 1.2 × 10^4 cells
[5]; 10.0 μg/ml
  Number of keratinocytes, KGM: 4.5 ± 0.2 × 10^4 cells
  Number of keratinocytes, KMB: 8.4 ± 0.2 × 10^4 cells
[5]; compared with retinoic acid
  Effect on keratinocytes (summary of Tables 9 and 10): potent "retinoid" effect on keratinocytes

## CCCCCCCCCC(=O)OCC(=O)COC(=O)/C=C(C)/C=C/C=C(C)\C=C\C1=C(C)CCCC1(C)C [Compound 3, 1-(9-cis-retinoyloxy)-3-decanoylyoxy-2-propanone]
[6]
  ODC activity reduction: +++
Sebaceous gland
  Sebaceous gland reduction: +++
